Where two headings read alike, the source gives them in different places.
Tests used:
229E = 229E MRC5 CPE assay (cytopathic experiment); assay type: cell-based, coronavirus 229E (HCoV-229E)
Experimental: (§1) Cells were seeded into microplates at a certain density and cultured overnight in a incubator at 5% CO2, 37° C. The next day, double-diluted compound and virus were added. It was set up a cell control group (cells without treatment with a compound or virus infection), a virus control group (cells infected with virus, no compound treatment) and a culture medium control group (medium only). Cells were cultured in the incubator for 3 days (229E) or 7 days (OC43). Cytotoxicity experiments were performed under the same conditions as antiviral experiments, but without virus infection. Cell viability was tested using a cell viability assay kit Cell Titer Glo (Promega).
(§2) The antiviral activity and cytotoxicity of the compounds were expressed by the inhibition rate (%) and cell viability (%) of the compounds against virus-induced cytopathic effects at different concentrations, respectively. Nonlinear fitting analysis on the inhibition rate and cell viability of the compounds were carried out with the GraphPad Prism, and the half effective concentration (EC50), the […] effective concentration (EC90), the half cytotoxic concentration (CC50) and the 90% cytotoxic concentration of the compound […] values were calculated.

OC43 = OC43 Huh7 CPE assay (cytopathic experiment); assay type: cell-based, coronavirus OC43 (HCoV-OC43); details: for EC50: read-out: OC43 Huh7 CPE assay (μM) EC50; for EC90: read-out: OC43 Huh7 CPE assay (μM) EC90
Experimental: as §1, §2

[1] = Human coronavirus 229E, MRC5, 72 h; read-out: 229E MRC5 CPE assay (μM) EC50
[2] = Human coronavirus 229E, MRC5, 72 h; read-out: 229E MRC5 CPE assay (μM) EC90
[3] = Betacoronavirus 1, Huh-7, 168 h, Huh7 cells, OC43 virus, 7 days, Cell Titer Glo
[4] = Human coronavirus 229E, MRC5, 72 h, read-out: 229E MRC5 CPE assay (μM) EC50
[5] = Human coronavirus 229E, MRC5, 72 h, read-out: 229E MRC5 CPE assay (μM) EC90
[6] = Betacoronavirus 1, OC43, Huh-7, 168 h
[7] = Huh7 cells, OC43 virus, 7 days, Cell Titer Glo

SMILES | EC50 (229E; [1]) [µM] | EC90 (229E; [2]) [µM] | EC50 (229E; [4]) [µM] | EC90 (229E; [5]) [µM] | EC50 (OC43; [6]) [µM] | EC90 (OC43; [6]) [µM] | also measured
CCC(CC)COC(=O)[C@H](C)NP(=O)(OC[C@H]1O[C@@](C#N)(c2ccc3c(N)ncnn23)[C@H](O)[C@@H]1O)Oc1cc(N)ccc1C(=O)OC (stereo partly shown) [Compound 128] | > 0.5 | > 0.5 |  |  |  |  | EC50 (OC43; [3]): > 0.5 µM; EC90 (OC43; [3]): > 0.5 µM
CCCC(CCC)C(=O)OCO[P@@]1(=O)OC[C@H]2O[C@@](C#N)(c3ccc4c(N)ncnn34)[C@H](O)[C@@H]2O1 [Compound 129] |  |  | < 0.1 | < 0.1 | < 0.1 | > 0.5 | 
CCCC(CCC)C(=O)OCO[P@]1(=O)OC[C@H]2O[C@@](C#N)(c3ccc4c(N)ncnn34)[C@H](O)[C@@H]2O1 [Compound 130] |  |  | < 0.1 | 0.1 to 0.5 | < 0.1 | 0.1 to 0.5 | 
CCCC(CCC)C(=O)OCO[P@](=O)(N[C@@H](Cc1ccccc1)C(=O)OCC)OC[C@H]1O[C@@](C#N)(c2ccc3c(N)ncnn23)[C@H](O)[C@@H]1O [Compound 137] |  |  | < 0.1 | 0.1 to 0.5 | < 0.1 | < 0.1 | 
CCCCOC(=O)[C@H](Cc1ccccc1)N[P@@](=O)(OCOC(=O)C(CCC)CCC)OC[C@H]1O[C@@](C#N)(c2ccc3c(N)ncnn23)[C@H](O)[C@@H]1O [Compound 138] |  |  | < 0.1 | 0.1 to 0.5 | < 0.1 | < 0.1 | 
CCCC(CCC)C(=O)OCO[P@](=O)(N[C@@H](Cc1ccccc1)C(=O)OCC(CC)CC)OC[C@H]1O[C@@](C#N)(c2ccc3c(N)ncnn23)[C@H](O)[C@@H]1O [Compound 139] |  |  | < 0.1 | 0.1 to 0.5 | < 0.1 | < 0.1 | 
CCC(CC)COC(=O)[C@H](C)N[P@@]1(=O)OC[C@H]2O[C@@](C#N)(c3ccc4c(N)ncnn34)[C@H](O)[C@@H]2O1 [Compound 140] |  |  | > 0.5 | > 0.5 | > 0.5 | > 0.5 | 
CCCC(CCC)C(=O)OC(C)O[P@]1(=O)OC[C@H]2O[C@@](C#N)(c3ccc4c(N)ncnn34)[C@H](O)[C@@H]2O1 (stereo partly shown) [Compound 141] |  |  | > 0.5 | > 0.5 | > 0.5 | > 0.5 | 
CCCC(CCC)C(=O)OC(C)O[P@]1(=O)OC[C@H]2O[C@@](C#N)(c3ccc4c(N)ncnn34)[C@H](O)[C@@H]2O1 (stereo partly shown) [Compound 142] |  |  |  |  |  |  | EC50 (229E; read-out: 229E MRC5 CPE assay (μM) EC50; MRC5 cells, 229E virus, 3 days, Cell Titer Glo): > 0.5 µM; EC90 (229E; read-out: 229E MRC5 CPE assay (μM) EC90; MRC5 cells, 229E virus, 3 days, Cell Titer Glo): > 0.5 µM; EC50 (OC43; [7]): > 0.5 µM; EC90 (OC43; [7]): > 0.5 µM
CCCC(CCC)C(=O)OCO[P@]1(=S)OC[C@H]2O[C@@](C#N)(c3ccc4c(N)ncnn34)[C@H](O)[C@@H]2O1 [Compound 143] | > 0.5 | > 0.5 |  |  | > 0.5 | > 0.5 | 
CCCC(CCC)C(=O)OCO[P@@]1(=S)OC[C@H]2O[C@@](C#N)(c3ccc4c(N)ncnn34)[C@H](O)[C@@H]2O1 [Compound 144] | > 0.5 | > 0.5 |  |  | > 0.5 | > 0.5 | 
CC(C)OC(=O)OCO[P@@]1(=O)OC[C@H]2O[C@@](C#N)(c3ccc4c(N)ncnn34)[C@H](O)[C@@H]2O1 [Compound 145] |  |  | < 0.1 | 0.1 to 0.5 | 0.1 to 0.5 | 0.1 to 0.5 | 
CC(C)OC(=O)CO[P@]1(=O)OC[C@H]2O[C@@](C#N)(c3ccc4c(N)ncnn34)[C@H](O)[C@@H]2O1 [Compound 146] |  |  | > 0.5 | > 0.5 | > 0.5 | > 0.5 | 
CC(C)OC(=O)CO[P@@]1(=O)OC[C@H]2O[C@@](C#N)(c3ccc4c(N)ncnn34)[C@H](O)[C@@H]2O1 [Compound 147] |  |  | > 0.5 | > 0.5 | > 0.5 | > 0.5 | 
CC(C)OC(=O)CO[P@]1(=S)OC[C@H]2O[C@@](C#N)(c3ccc4c(N)ncnn34)[C@H](O)[C@@H]2O1 [Compound 149] | > 0.5 | > 0.5 |  |  | > 0.5 | > 0.5 | 
CC(C)OC(=O)CO[P@@]1(=S)OC[C@H]2O[C@@](C#N)(c3ccc4c(N)ncnn34)[C@H](O)[C@@H]2O1 [Compound 150] | > 0.5 | > 0.5 |  |  | > 0.5 | > 0.5 | 
